Results from patent US20260007133A1, “HERBICIDAL COMPOSITION COMPRISING AZINE COMPOUNDS” (BASF SE, priority 2022, published 2026).
Values joined by “and” are separate entries in the source; they are usually repeats but may differ in a detail not shown here. Equal entries are not always repeated. Where two headings read alike, the source gives them in different places.

Legend:
Type in all cases: in vivo
[1] = test system: Abutilon theophrasti; test: Greenhouse pre-emergence (PRE) herbicidal test on ABUTH; conditions: Abutilon theophrasti, pre-emergence; for inhibition at 8 g/ha: use rate 8 gai/ha; for inhibition at 2 g/ha: use rate 2 gai/ha
Summary of the method: (§1)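 Seeds were sown per species in loamy sand with ~3.0% humus, treated pre-emergence and kept at 10-25° C or 20-35° C depending on species. Damage was scored at 20 days after treatment on a 0-100 scale (100 = no emergence or complete destruction of above-ground parts, 0 = no damage).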

[2] = test system: Geranium pusillum; test: Greenhouse pre-emergence (PRE) herbicidal test on GERPU; conditions: Geranium pusillum, pre-emergence; for inhibition at 4 g/ha: use rate 4 gai/ha
Summary of the method: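 Seeds sown in loamy sand (~3.0% humus); compounds in water applied by fine nozzles directly after sowing, then pots irrigated and hooded until rooting. Plants held at 10-25° C or 20-35° C by species; damage scored 0-100 (100 = no emergence/complete destruction) 20 days after treatment.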

[3] = test system: Alopecurus myosuroides; test: Greenhouse pre-emergence (PRE) herbicidal test on ALOMY
Summary of the method: as §1

[4] = test system: Amaranthus retroflexus; test: Greenhouse pre-emergence (PRE) herbicidal test on AMARE; conditions: Amaranthus retroflexus, pre-emergence; AMARE PRE, use rate 2 gai/ha; read-out: % activity
Summary of the method: as §1

[5] = test system: Lolium multiflorum; test: Greenhouse pre-emergence (PRE) herbicidal test on LOLMU; conditions: Lolium multiflorum, pre-emergence; for inhibition at 2 g/ha: use rate 2 gai/ha; for inhibition at 8 g/ha: use rate 8 gai/ha; for inhibition at 1 g/ha: use rate 1 gai/ha
Summary of the method: as §1

[6] = test system: Euphorbia heterophylla; test: Greenhouse pre-emergence (PRE) herbicidal test on EPHHL; conditions: for inhibition at 8 g/ha: use rate 8 gai/ha
Summary of the method: as §1

[7] = test system: Digitaria sanguinalis; test: Greenhouse post-emergence (POST) herbicidal test on DIGSA; conditions: for inhibition at 2 g/ha / inhibition at 8 g/ha / inhibition at 4 g/ha / inhibition at 1 g/ha: Digitaria sanguinalis, post-emergence; for inhibition at 2 g/ha: use rate 2 gai/ha; for inhibition at 4 g/ha: use rate 4 gai/ha; for inhibition at 1 g/ha: use rate 1 gai/ha
Summary of the method: (§2)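 POST spray at 3–15 cm plant height, BBCH stage as given; loamy sand, ~3.0% humus; 10-25° C / 20-35° C per species; 0–100 damage scale; read 20 DAT.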

[8] = test system: Echinochloa crus-galli; test: Greenhouse post-emergence (POST) herbicidal test on ECHCG; conditions: Echinochloa crus-galli, post-emergence; for inhibition at 2 g/ha: use rate 2 gai/ha; for inhibition at 1 g/ha: use rate 1 gai/ha
Summary of the method: as §2

[9] = test system: Commelina benghalensis; test: Greenhouse pre-emergence (PRE) herbicidal test on COMBE; conditions: Commelina benghalensis, pre-emergence
Summary of the method: as §1

[10] = test system: Ambrosia artemisiifolia; test: Greenhouse pre-emergence (PRE) herbicidal test on AMBEL; conditions: Ambrosia artemisiifolia, pre-emergence; for inhibition at 8 g/ha: use rate 8 gai/ha
[11] = test system: Galium aparine; test: Greenhouse pre-emergence (PRE) herbicidal test on GALAP; conditions: Galium aparine, pre-emergence; PRE; GALAP; use rate 1 gai/ha
Text: (§3) The culture containers used were plastic pots containing loamy sand with approximately 3.0% of humus as substrate. The seeds of the test plants were sown separately for each species.
(§4) For the pre-emergence treatment, the active compounds, suspended or emulsified in water, were applied directly after sowing by means of finely distributing nozzles. The containers were irrigated gently to promote germination and growth and subsequently covered with transparent plastic hoods until the plants had rooted. This cover caused uniform germination of the test plants unless this was adversely affected by the active compounds.
(§5) Depending on the species, the plants were kept at 10-25° C. and 20-35° C., respectively.
(§6) The test period extended over 2 to 4 weeks. During this time, the plants were tended and their response to the individual treatments was evaluated.
(§7) Evaluation was carried out using a scale from 0 to 100. 100 means no emergence of the plants, or complete destruction of at least the above-ground parts, and 0 means no damage or normal course of growth. A good herbicidal activity is given at values of at least 70, and very good herbicidal activity is given at values of at least 85.
(§8) If not stated differently, the respective components A and B, and if appropriate, C were formulated as a 5% by weight strength emulsion concentrate and, with addition of the amount of solvent system, introduced into the spray liquor used for applying the active compound.
(§9) As indicated application was either post emergent (POST) at the respective growth stage (GS) of the weed (BBCH code), or pre-emergent (PRE).
(§10) Assessment was 20 days after treatment (DAT).

[12] = test system: Brachiaria decumbens; test: Greenhouse pre-emergence (PRE) herbicidal test on BRADC; conditions: Urochloa decumbens, PRE, BRADC, use rate 1 gai/ha
Text: as §3, §4, §5, §6, §7, §8, §9, §10

[13] = test system: Echinochloa crus-galli; test: Greenhouse pre-emergence (PRE) herbicidal test on ECHCG; conditions: PRE, ECHCG, use rate 2 gai/ha, 20 DAT
[14] = ABUTH PRE, read-out: % activity
[15] = 480 h, PRE, LOLMU, 20 DAT, read-out: solo application % activity
[16] = DIGSA POST, read-out: % activity
[17] = POST, DIGSA, read-out: % activity
[18] = POST, ECHCG, read-out: % activity

With `COc1c(Cl)c(F)c(F)c(F)c1Nc1nc(N)nc(C(C)(C)F)n1` [Compound I-4, N4-(5-Chloro-2,3,4-trifluoro-6-methoxy-phenyl)-6-(1-fluoro-1-methyl-ethyl)-1,3,5-triazine-2,4-diamine] the inhibition at 8 g/ha ([1]; 240 h, PRE, 10 DAT, read-out: % activity) was 50%, the inhibition at 16 g/ha ([1]; 240 h, PRE, use rate 16 gai/ha, 10 DAT) was 70% and the pest or weed control at 2 g/ha ([1]; 480 h, PRE, ABUTH, I-4 solo 2 gai/ha, 20 DAT) was 35%. For the same compound, the inhibition at 8 g/ha ([1]; 480 h, PRE, ABUTH, 20 DAT, read-out: solo application % activity) was 90%, the inhibition at 2 g/ha [1, 14] was 10% and the inhibition at 8 g/ha [1, 14] was 80%. The inhibition at 2 g/ha ([2]; 480 h, PRE, use rate 2 gai/ha, 20 DAT) was 10%, the pest or weed control at 2 g/ha ([3]; Alopecurus myosuroides, pre-emergence, 480 h, PRE, ALOMY, I-4 solo 2 gai/ha, 20 DAT, read-out: % activity) was 50% and the inhibition at 2 g/ha ([3]; Alopecurus myosuroides, pre-emergence, 480 h, PRE, ALOMY, use rate 2 gai/ha, 20 DAT, read-out: solo application % activity) was 5%. It also gave an inhibition at 8 g/ha ([3]; Alopecurus myosuroides, pre-emergence, 480 h, PRE, ALOMY, use rate 8 gai/ha, 20 DAT, read-out: solo application % activity) of 25%, an inhibition at 2 g/ha [4] of 70% and a pest or weed control at 2 g/ha ([5]; 480 h, PRE, LOLMU, I-4 solo 2 gai/ha, 20 DAT, read-out: % activity) of 10%. The pest or weed control at 8 g/ha ([5]; 480 h, PRE, LOLMU, I-4 solo 8 gai/ha, 20 DAT) was 65%, the inhibition at 2 g/ha [5, 15] was 5% and the inhibition at 8 g/ha [5, 15] was 60%. For the same compound, the inhibition at 8 g/ha ([5]; LOLMU PRE, read-out: % activity) was 35%, the pest or weed control at 8 g/ha ([6]; Euphorbia heterophylla, pre-emergence, 480 h, PRE, EPHHL, I-4 solo 8 gai/ha, 20 DAT) was 5% and the inhibition at 2 g/ha ([6]; Euphorbia heterophylla, pre-emergence, 480 h, PRE, EPHHL, use rate 2 gai/ha, 20 DAT, read-out: solo application % activity) was 0%. For the same compound, the inhibition at 8 g/ha ([6]; Euphorbia heterophylla, pre-emergence, 480 h, PRE, EPHHL, 20 DAT, read-out: solo application % activity) was 10%, the inhibition at 8 g/ha ([6]; Euphorbia heterophylla, pre-emergence, EPHHL PRE, read-out: % activity) was 40% and the “% activity” value ([7]; DIGSA POST, use rate 8 gai/ha) was 35%. For the same compound, the inhibition at 2 g/ha ([7]; 480 h, POST, DIGSA, 20 DAT, read-out: solo application % activity) was 0%, the inhibition at 8 g/ha ([7]; 480 h, POST, DIGSA, use rate 8 gai/ha, 20 DAT, read-out: solo application % activity) was 0% and the inhibition at 2 g/ha [7, 16] was 10%. It also gave an inhibition at 8 g/ha ([7]; DIGSA POST, use rate 8 gai/ha, read-out: % activity) of 25%, an inhibition at 2 g/ha ([8]; 480 h, POST, ECHCG, 20 DAT, read-out: solo application % activity) of 0% and an inhibition at 8 g/ha ([8]; 480 h, POST, ECHCG, use rate 8 gai/ha, 20 DAT, read-out: solo application % activity) of 5%. The pest or weed control at 2 g/ha ([9]; 480 h, PRE, COMBE, I-4 solo 2 gai/ha, 20 DAT, read-out: % activity) was 10%, the inhibition at 8 g/ha ([9]; 480 h, PRE, COMBE, use rate 8 gai/ha, 20 DAT, read-out: solo application % activity) was 10% and the inhibition at 4 g/ha ([10]; 240 h, PRE, use rate 4 gai/ha, 10 DAT) was 10%. It also gave a pest or weed control at 8 g/ha ([10]; 480 h, PRE, AMBEL, I-4 solo 8 gai/ha, 20 DAT) of 35%, an inhibition at 2 g/ha ([10]; 480 h, PRE, AMBEL, use rate 2 gai/ha, 20 DAT, read-out: solo application % activity) of 0% and an inhibition at 8 g/ha ([10]; 480 h, PRE, AMBEL, 20 DAT, read-out: solo application % activity) of 30%. For the same compound, the inhibition at 8 g/ha ([10]; AMBEL PRE, read-out: % activity) was 15%.

Work on `COc1c(F)cc(F)c(F)c1Nc1nc(N)nc(C(C)(C)F)n1` [Compound I-1] yielded an inhibition at 2 g/ha ([1]; 480 h, PRE, ABUTH, 20 DAT, read-out: % activity) of 65%, an inhibition at 4 g/ha ([1]; 480 h, PRE, ABUTH, use rate 4 gai/ha, 20 DAT) of 75% and an inhibition at 1 g/ha ([1]; ABUTH PRE, use rate 1 gai/ha, read-out: % activity) of 75%. For the same compound, the inhibition at 4 g/ha ([2]; 480 h, PRE, GERPU, 20 DAT) was 50%, the inhibition at 1 g/ha ([2]; GERPU PRE, use rate 1 gai/ha) was 0% and the inhibition at 4 g/ha ([2]; GERPU PRE) was 20%. For the same compound, the inhibition at 4 g/ha ([2]; PRE, GERPU) was 10%, the inhibition at 1 g/ha [11] was 0% and the “% activity” value ([3]; ALOMY PRE, use rate 1 gai/ha) was 30%. It also gave an inhibition at 1 g/ha ([3]; Alopecurus myosuroides, pre-emergence, 480 h, PRE, ALOMY, use rate 1 gai/ha, 20 DAT) of 10%, an inhibition at 1 g/ha ([3]; Alopecurus myosuroides, pre-emergence, ALOMY PRE, use rate 1 gai/ha) of 15% and an inhibition at 4 g/ha ([3]; Alopecurus myosuroides, pre-emergence, ALOMY PRE, use rate 4 gai/ha) of 90%. For the same compound, the inhibition at 1 g/ha [12] was 0%, the inhibition at 1 g/ha ([5]; 480 h, PRE, LOLMU, 20 DAT) was 40% and the inhibition at 2 g/ha ([5]; 480 h, PRE, LOLMU, 20 DAT, read-out: % activity) was 50%. For the same compound, the inhibition at 1 g/ha ([5]; LOLMU PRE) was 20%, the inhibition at 4 g/ha ([5]; LOLMU PRE, use rate 4 gai/ha) was 85% and the inhibition at 1 g/ha ([5]; PRE, LOLMU) was 35%. For the same compound, the “% activity” value ([6]; EPHHL PRE, use rate 4 gai/ha) was 20%, the inhibition at 16 g/ha ([6]; Euphorbia heterophylla, pre-emergence, 480 h, PRE, EPHHL, use rate 16 gai/ha, 20 DAT) was 60% and the inhibition at 4 g/ha ([6]; Euphorbia heterophylla, pre-emergence, EPHHL PRE, use rate 4 gai/ha) was 25%. For the same compound, the inhibition at 1 g/ha ([6]; Euphorbia heterophylla, pre-emergence, PRE, EPPHL, use rate 1 gai/ha, read-out: % activity) was 0%, the inhibition at 4 g/ha ([6]; Euphorbia heterophylla, pre-emergence, PRE, EPPHL, use rate 4 gai/ha) was 70% and the “% activity” value [13] was 35% and 65%. The inhibition at 2 g/ha ([7]; 480 h, POST, DIGSA, 20 DAT, read-out: % activity) was 0%, the inhibition at 4 g/ha ([7]; 480 h, POST, DIGSA, 20 DAT) was 30% and the inhibition at 1 g/ha [7, 16] was 5%. For the same compound, the inhibition at 4 g/ha ([7]; DIGSA POST) was 25%, the inhibition at 1 g/ha [7, 17] was 0% and the inhibition at 2 g/ha [7, 17] was 10%. The inhibition at 4 g/ha ([8]; 480 h, POST, ECHCG, use rate 4 gai/ha, 20 DAT) was 0%, the inhibition at 1 g/ha ([8]; ECHCG POST, read-out: % activity) was 30% and the inhibition at 1 g/ha [8, 18] was 10%. For the same compound, the inhibition at 2 g/ha [8, 18] was 10%, the inhibition at 1 g/ha ([9]; COMBE PRE, use rate 1 gai/ha) was 35% and the inhibition at 4 g/ha ([9]; COMBE PRE, use rate 4 gai/ha) was 0%. For the same compound, the inhibition at 1 g/ha ([10]; 480 h, PRE, AMBEL, use rate 1 gai/ha, 20 DAT) was 10%.
